Patent publication US8501713B2, “Drug combinations for the treatment of duchenne muscular dystrophy” (Summit Corporation PLC, priority 2007, dated 2013)

Tested on: Utrophin A promoter linked to a luciferase reporter gene
Assay: Luciferase reporter assay (murine H2K cells)
Assay type: cell-based
Settings: for activity at 10 µM: Mus musculus, H2K mdx, luciferase level relative to control, H2K/mdx/Utro A reporter cells, compound 10 μM final concentration, read-out: Activity; for Activity: luciferase reporter assay in murine H2K cells, classified relative to control
Procedure, shortened: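 Compound at 10 μM final was applied for 48 hrs to plated H2K mdx myoblasts (33° C, 10% CO2, interferon-containing medium) bearing a luciferase gene under the utrophin A promoter. Luminescence from lysed cells served as read-out.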

| Structure (SMILES) | activity at 10 µM [%] | Activity |
| --- | --- | --- |
| CC(C)C(=O)Nc1ccc2oc(-c3ccc(OC(F)(F)F)cc3)nc2c1 [Example 355, N-(2-(4-(trifluoromethoxy)phenyl)benzo[d]oxazol-5-yl)isobutyramide] | < 200 | – |
| c1ccc2cc(-c3nc4ccccc4o3)ccc2c1 [Example 450, 2-(Naphthalen-2-yl)benzo[d]oxazole] | > 401 | – |
| CCOC(=O)Nc1ccc2oc(-c3ccc(Cl)cc3)nc2c1 [Example 386, ethyl 2-(4-chlorophenyl)benzo[d]oxazol-5-ylcarbamate] | < 200 | – |
| CC(=O)Nc1ccc(-c2nc3cc(Cl)ccc3o2)cc1 [Example 317, N-(4-(5-chlorobenzo[d]oxazol-2-yl)phenyl)acetamide] | 301 to 400 | – |
| Nc1ccc2oc(-c3cccc4ccccc34)nc2c1 [Example 577] | – | + (Up to 200% relative to control) |
| O=C(Nc1ccc2oc(-c3ccc(Cl)cc3)nc2c1)C(F)(F)F [Example 211, N-(2-(4-chlorophenyl)benzo[d]oxazol-5-yl)-2,2,2-trifluoroacetamide] | 201 to 300 | – |
| O=C(C=Cc1ccccc1)Nc1ccc2oc(-c3cccnc3)nc2c1 [Example 52, N-(2-(pyridin-3-yl)benzo[d]oxazol-5-yl)cinnamamide] | < 200 | – |
| CCOCC(=O)Nc1ccc(-c2nc3ccc(C)cc3s2)cc1 [Example 657] | – | +++ (Between 301% and 400% relative to control) |
| CC(C)CN(CC(C)C)c1ccc2oc(-c3ccc(Cl)cc3)nc2c1 [Example 335, 2-(4-chlorophenyl)-N,N-diisobutylbenzo[d]oxazol-5-amine] | < 200 | – |
| CCN(CC)c1ccc(-c2nc3cc(C(=O)O)ccc3o2)cc1 [Example 152, 2-(4-(diethylamino)phenyl)benzo[d]oxazole-5-carboxylic acid] | < 200 | – |
| COc1ccc(-c2nc3cc(NC(=O)C(C)C)ccc3o2)cc1 [Example 139, N-(2-(4-methoxyphenyl)benzo[d]oxazol-5-yl)isobutyramide] | 201 to 300 | – |
| O=C(c1ccccc1)c1ccc2nc(-c3ccccc3)[nH]c2c1 [Example 581] | – | + (Up to 200% relative to control) |
| COc1ccc(-c2nc3cc([N+](=O)[O-])ccc3[nH]2)cc1OC [Example 520] | – | + (Up to 200% relative to control) |
| COc1ccc(C(=O)Nc2ccc3oc(-c4ccc(OC)cc4)nc3c2)cc1 [Example 83, 4-methoxy-N-(2-(4-methoxyphenyl)benzo[d]oxazol-5-yl)benzamide] | < 200 | – |
| COc1ccc2cc(-c3nc4cc(NC(=O)C(C)C)ccc4o3)ccc2c1 [Example 412, N-(2-(6-methoxynaphthalen-2-yl)benzo[d]oxazol-5-yl)isobutyramide] | < 200 | – |
| CC(C)C(=O)Nc1ccc2oc(-c3ccc4cc(Br)ccc4c3)nc2c1 [Example 413, N-(2-(6-bromonaphthalen-2-yl)benzo[d]oxazol-5-yl)isobutyramide] | < 200 | – |
| O=[N+]([O-])c1cc2oc(-c3ccc4c(c3)OCO4)nc2cc1Cl [Example 371, 2-(benzo[d][1,3]dioxol-5-yl)-5-chloro-6-nitrobenzo[d]oxazole] | 301 to 400 | – |
| O=C(Nc1ccc2oc(-c3ccc(Cl)cc3)nc2c1)c1cccs1 [Example 103, N-(2-(4-chlorophenyl)benzo[d]oxazol-5-yl)thiophene-2-carboxamide] | < 200 | – |
| CN[C@@H](C)C(=O)Nc1ccc2oc(-c3ccc(Cl)cc3)nc2c1 [Example 377, (S)-N-(2-(4-chlorophenyl)benzo[d]oxazol-5-yl)-2-(methylamino)propanamide] | 301 to 400 | – |

| Structure (SMILES) | activity at 10 µM [%] | Activity |
| --- | --- | --- |
| Cc1ccc(-c2nc3cc(C(=O)NC(C)C)ccc3o2)cc1 [Example 181, N-isopropyl-2-p-tolylbenzo[d]oxazole-5-carboxamide] | 301 to 400 | – |
| CCOc1ccc2nc(NC(=O)c3ccccc3)sc2c1 [Example 555] | – | + (Up to 200% relative to control) |
| Cc1ccc(-c2nc3cc(NC(=O)c4cccs4)ccc3o2)cc1 [Example 120, N-(2-p-tolylbenzo[d]oxazol-5-yl)thiophene-2-carboxamide] | 201 to 300 | – |
| Cc1nn(-c2nc3ccccc3[nH]2)c(N)c1-c1ccccc1 [Example 659] | – | +++ (Between 301% and 400% relative to control) |
| CCNC(=O)Nc1ccc2[nH]c(C(C)(C)C)cc2c1 [Example 576] | – | + (Up to 200% relative to control) |
| O=[N+]([O-])c1ccc2oc(SCc3ccc(Cl)cc3)nc2c1 [Example 379, 2-(4-chlorobenzylthio)-5-nitrobenzo[d]oxazole] | < 200 | – |
| O=[N+]([O-])c1ccc2nc(-c3ccc(Cl)cc3)oc2c1 [Example 191, 2-(4-chlorophenyl)-6-nitrobenzo[d]oxazole] | 201 to 300 | – |
| CC(C)C(=O)Nc1ccc2oc(-c3ccc4c(c3)OCO4)nc2c1 [Example 300, N-(2-(benzo[d][1,3]dioxol-5-yl)benzo[d]oxazol-5-yl)isobutyramide] | 301 to 400 | – |
| Cc1ccc(-c2nc3ccc([N+](=O)[O-])cc3o2)cc1 [Example 190, 6-nitro-2-p-tolylbenzo[d]oxazole] | 301 to 400 | – |
| Fc1ccccc1-c1nc2ccccc2[nH]1 [Example 507] | – | ++ (Between 201% and 300% relative to control) |
| CC(C)CN(C)c1ccc2oc(-c3ccc(Cl)cc3)nc2c1 [Example 322, 2-(4-chlorophenyl)-N-isobutyl-N-methylbenzo[d]oxazol-5-amine] | < 200 | – |
| Cc1cc(C)c2oc(-c3ccc(Cl)c(N)c3)nc2c1 [Example 627] | – | ++++ (Above 401% relative to control) |
| CC(=O)Nc1ccc(-c2nc3cc(NC(=O)C(C)C)ccc3o2)cc1 [Example 374, N-(2-(4-acetamidophenyl)benzo[d]oxazol-5-yl)isobutyramide] | < 200 | – |
| Cc1ccc(-c2nc3cc(N)ccc3o2)cc1Cl [Example 526] | – | ++ (Between 201% and 300% relative to control) |
| Nc1ccc2oc(-c3cccc(F)c3)nc2c1 [Example 232, 2-(3-fluorophenyl)benzo[d]oxazol-5-amine] | > 401 | – |
| O=C(COc1ccc2c(c1)OCO2)Nc1nc2ccccc2s1 [Example 614] | – | + (Up to 200% relative to control) |
| Cc1ccc2oc(-c3ccc(Cl)c(NC(=O)c4ccco4)c3)nc2c1 [Example 677] | – | ++ (Between 201% and 300% relative to control) |
| O=[N+]([O-])c1ccc2oc(-c3ccc(OC(F)(F)F)cc3)nc2c1 [Example 348, 5-nitro-2-(4-(trifluoromethoxy)phenyl)benzo[d]oxazole] | 201 to 300 | – |
| Nc1ccc2oc(-c3cccc(Cl)c3)nc2c1 [Example 489] | – | ++ (Between 201% and 300% relative to control) |

| Structure (SMILES) | activity at 10 µM [%] | Activity |
| --- | --- | --- |
| CC(C)C(=O)Nc1ccc2oc(Cc3ccccc3)nc2c1 [Example 228, N-(2-benzylbenzo[d]oxazol-5-yl)isobutyramide] | < 200 | – |
| Nc1ccc2oc(-c3cccc(C(F)(F)F)c3)nc2c1 [Example 174, 2-(3-(trifluoromethyl)phenyl)benzo[d]oxazol-5-amine] | < 200 | – |
| O=C(Nc1ccc2oc(-c3ccccc3)nc2c1)c1ccccc1 [Example 59, N-(2-phenylbenzo[d]oxazol-5-yl)benzamide] | 201 to 300 | – |
| O=C(Nc1ccc2oc(-c3cccnc3)nc2c1)c1cc(Cl)cc(Cl)c1 [Example 47, 3,5-dichloro-N-(2-(pyridin-3-yl)benzo[d]oxazol-5-yl)benzamide] | < 200 | – |
| O=C(Nc1ccc2nc(-c3ccc(Cl)cc3)oc2c1)C1CC1 [Example 353, N-(2-(4-chlorophenyl)benzo[d]oxazol-6-yl)cyclopropanecarboxamide] | 201 to 300 | – |
| CCCC(=O)Nc1ccc2oc(-c3cccc(Cl)c3)nc2c1 [Example 239, N-(2-(3-chlorophenyl)benzo[d]oxazol-5-yl)butyramide] | < 200 | – |
| O=C(Nc1nc2ccccc2s1)c1ccccc1Br [Example 616] | – | ++++ (Above 401% relative to control) |
| CCN(CC)c1ccc(-c2nc3cc(NC(=O)c4ccc(N(C)C)cc4)ccc3o2)cc1 [Example 67, N-(2-(4-(diethylamino)phenyl)benzo[d]oxazol-5-yl)-4-(dimethylamino)benzamide] | 201 to 300 | – |
| O=C(Nc1ccc2oc(-c3cccnc3)nc2c1)c1ccc(Cl)c(Cl)c1 [Example 45, 3,4-dichloro-N-(2-(pyridin-3-yl)benzo[d]oxazol-5-yl)benzamide] | < 200 | – |
| CCC(=O)Nc1ccc2oc(-c3ccc(C(F)(F)F)cc3)nc2c1 [Example 124, N-(2-(4-(trifluoromethyl)phenyl)benzo[d]oxazol-5-yl)propionamide] | < 200 | – |
| Cc1ccc(-c2nc3cc(NCc4ccccc4)ccc3o2)cc1 [Example 187, N-benzyl-2-p-tolylbenzo[d]oxazol-5-amine] | 301 to 400 | – |
| COc1ccc(C(=O)Nc2ccc3oc(-c4cccnc4)nc3c2)cc1 [Example 42, 4-methoxy-N-(2-(pyridin-3-yl)benzo[d]oxazol-5-yl)benzamide] | < 200 | – |
| Cc1ccc2nc(-c3ccc(O)cc3)sc2c1 [Example 643] | – | +++ (Between 301% and 400% relative to control) |
| CN(C)S(=O)(=O)c1ccc2nc(NC(=O)c3cccs3)sc2c1 [Example 683] | – | ++ (Between 201% and 300% relative to control) |
| CNS(=O)(=O)c1ccc2nc(NC(=O)c3cccs3)sc2c1 [Example 687] | – | ++ (Between 201% and 300% relative to control) |
| Cc1cc2nc(-c3ccc(N)cc3O)[nH]c2cc1C [Example 104, 5-amino-2-(5,6-dimethyl-1H-benzo[d]imidazol-2-yl)phenol] | 201 to 300 | – |
| CCCC(=O)Nc1ccc2oc(-c3cccc(N(C)C)c3)nc2c1 [Example 201, N-(2-(3-(dimethylamino)phenyl)benzo[d]oxazol-5-yl)butyramide] | < 200 | – |
| Cc1ccc2oc(-c3cc(NC(=O)c4cncc(Br)c4)ccc3O)nc2c1 [Example 684] | – | ++ (Between 201% and 300% relative to control) |
